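Each compound was tested at five concentrations against cells in 96-well plates for 48 hours. GI50 marks 50% less growth. At the TGI there is no net growth.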
Experiments:
Test in all cases: NCI tumour cell line growth inhibition, 48 h
[1] = test system: 786-0 renal
[2] = test system: DU-145 prostate
[3] = test system: MALME-3M melanoma
[4] = test system: NCI-H226 lung
[5] = test system: OVCAR-4 ovarian
[6] = test system: SF-295 CNS
[7] = test system: SK-OV-3 ovarian
[8] = test system: T-47D breast
[9] = test system: TK-10 renal
[10] = test system: UACC-257 melanoma

Row | SMILES | GI50 [1] [µM] | TGI [1] [µM] | GI50 [2] [nM] | TGI [2] [µM] | GI50 [3] [nM] | TGI [3] [µM] | GI50 [4] [µM] | TGI [4] [µM] | GI50 [5] [µM] | TGI [5] [µM] | GI50 [6] [nM] | TGI [6] [µM] | GI50 [7] [µM] | TGI [7] [µM] | GI50 [8] [µM] | TGI [8] [µM] | GI50 [9] [µM] | TGI [9] [µM] | GI50 [10] [µM] | TGI [10] [µM]
1 | CCOC(=O)c1cnc2c(cnn2CC)c1NN=C(C)C | 29.6 | > 100 | 29500 | > 100 | > 100000 | > 100 | 57.4 | > 100 | 94.6 | > 100 | 27600 | > 100 | 55.7 | > 100 | 29 | > 100 | 27.1 | > 100 | 30.4 | > 100
2 | Cc1nc2ccc(NCCN(C)C)c3c(=O)c4cc(O)ccc4n1c23 |  | 10.5 |  | 4.93 |  | 9.06 |  | 1.7 |  | 3.38 |  | 5.87 |  | 8.98 |  | 14.8 |  | 12.5 |  | 13.6
3 | Cc1[nH]nc(C(=O)Nc2n[nH]c3ccccc23)c1[N+](=O)[O-] | > 100 | > 100 | > 79700 | > 100 | > 100000 | > 100 | > 100 | > 100 | > 100 | > 100 | > 100000 | > 100 | > 100 | > 100 | > 100 | > 100 | > 100 | > 100 | > 100 | > 100
4 | Oc1ccc(-c2nc3ccc4[nH]ncc4c3c3c2CCCC3)c2cccnc12 | 0.435 | 3.95 | 500 | 8.13 | 523 | 2.61 | 1.22 | 5.79 | 0.781 | 6.06 | 339 | 2.68 | 0.509 | 2.26 | 0.697 | 4.67 | 0.496 | 7.01 | 0.888 | 3.68
5 | COc1cc(/C=C/C(=O)c2cc(OC)c(OC)c(OC)c2)cc(OC)c1OC | 3.07 | 11.3 | 2030 | 5.95 | 2480 | 19.6 | 6.36 | 87.4 | 3.63 | 57.8 | 2180 | 7.85 | 11.5 | > 100 | 3.5 | 31.5 | 4.42 | 59.2 | 4.35 | 34.6
